Values joined by “and” are separate entries in the source; they are usually repeats but may differ in a detail not shown here. Identical values can stand only once. Peptide text beside a SMILES is read from it.
Experiments:
MRPA0108 cells = experiment: Intracellular antibiotic assay by HPLC; assay type: cell-based, Pseudomonas aeruginosa; settings: RP-HPLC of cell lysate
Procedure: Mid-log growth-phase bacteria were diluted to 1 × 10^8 CFU/ml and treated with I1W or L12W at concentrations ranging from 3.13 to 50 μM for 12 h at 37°C. After induction, the cultures were harvested by centrifugation at 12,000 rpm for 2 min, washed three times with PBS buffer (pH 7.2), and then incubated with lysozyme (20 mg/ml) at 37°C for 1 h in a water bath. After centrifugation at 12,000 rpm for 5 min, the supernatant of the cell lysates was collected, added to methanol (1:3) and vortexed to precipitate proteins. After recentrifugation at 12,000 rpm for 5 min, the supernatant was measured by using HPLC with a mobile phase of 0.1% trifluoroacetic acid/methanol (92:8, v/v) and a flow rate of 0.7 ml/min.

MRPA0108 biofilms = experiment: Confocal laser scanning microscopy of biofilms (LIVE/DEAD staining); assay type: cell-based, Pseudomonas aeruginosa; settings: 24 h; for percentage of dead/live cells in biofilm: SYTO9/PI, control 8.7%
Procedure: Biofilms of MRPA0108 were visualized by confocal microscopy. Mid-log growth-phase bacteria were diluted to 1 × 10^7 CFU/ml. […] LB liquid medium and erythromycin were used as negative and positive controls, respectively. After incubation, the supernatant was removed, and the slides were washed and stained in a dark environment for 30 min using a LIVE/DEAD BacLight^TM Bacterial Viability Kit (Invitrogen, Life Technologies, Shanghai, China). The slides were washed three times and imaged with a confocal laser scanning microscope (LSM 710, Carl Zeiss, Germany) with excitation/emission wavelengths of 480/500 and 490/635 nm for SYTO9 and propidium iodide (PI), respectively. SYTO9 was used to indicate live bacteria, and PI was used to mark dead bacteria.

[1] = range over peptide 3.13 to 50 μM, 12 h 37°C

**Q.** Which results are given for `CC[C@H](C)[C@H](NC(=O)[C@H](CCCCN)NC(=O)[C@H](CO)NC(=O)[C@H](CC(C)C)NC(=O)[C@@H](NC(=O)[C@H](CCCCN)NC(=O)[C@H](CCCCN)NC(=O)[C@@H](N)Cc1c[nH]c2ccccc12)[C@@H](C)CC)C(=O)N[C@@H](CCCCN)C(=O)N[C@@H](CCCCN)C(=O)N[C@@H](CC(C)C)C(=O)N[C@@H](CC(C)C)C(=O)N[C@@H](CCCCN)C(N)=O` [I1W] (H-WKKILSKIKKLLK-NH2; N-terminus and C-terminus assumed)?
**A.** increase of ceftazidime content in MRPA0108 cells (MRPA0108 cells; peptide at its MIC): 19%; increase of levofloxacin content in MRPA0108 cells (MRPA0108 cells; peptide at its MIC): 1%; increase of piperacillin content in MRPA0108 cells (MRPA0108 cells; peptide at its MIC): 17%; increase of ceftazidime content in MRPA0108 cells (MRPA0108 cells; [1]): 7.5-100%; increase of levofloxacin content in MRPA0108 cells (MRPA0108 cells; [1]): 0.01–22%; increase of piperacillin content in MRPA0108 cells (MRPA0108 cells; [1]): 8–80%; average biofilm thickness (MRPA0108 biofilms; after treatment with low concentrations of peptide (1 × MIC or 2 × MIC), 37°C, control biofilm 6 μm): 1.5–2.5 μm and 1.5 μm; percentage of dead/live cells in biofilm (MRPA0108 biofilms; peptide at 1 × MIC): 29.9%; percentage of dead/live cells in biofilm (MRPA0108 biofilms; peptide at 2 × MIC): 47.9%

From PMC7906020, “Trp-Containing Antibacterial Peptides Impair Quorum Sensing and Biofilm Development in Multidrug-Resistant Pseudomonas aeruginosa and Exhibit Synergistic Effects With Antibiotics” (Frontiers in Microbiology, 2021)
